Columns and labels:
XeIF4E1a [1] = target: T1, XeIF4E1a (Xenopus laevis, UniProt P48597); experiment: time-synchronized fluorescence titration of cap analogue binding; settings: for Kas + glycerol XeIF4E1a / Kas − glycerol XeIF4E1a: equilibrium association constant; for Kas − glycerol XeIF4E1a: buffer without glycerol
T1 construct: made in house; host or cells: E. coli Rosetta2(DE3)
Description: (§1) The time-synchronized fluorescence titration method, widely used to determine the affinity constants of cap–eIF4E complexes [[20,22–26]], measures the quenching of the intrinsic fluorescence of tryptophan residues due to cap binding (Fig. S2). Knowledge of the equilibrium association constant Kas enables the calculation of the free-energy changes involved in the interaction between eIF4E and ligand, according to the standard equation ΔG° = − RTlnKas.
(§2) For human eIF4E1a and eIF4E1b and also for Xenopus eIF4E1a and its mutated forms, measurements were carried out using 0.1 μM protein in 50 mM Hepes/KOH (pH 7.2), 134.5 mM KCl, 0.5 mM EDTA and 1 mM DTT. For Xenopus eIF4E1b(ΔN27), the concentration was 0.2 μM and glycerol was added to the buffer to 10% (v/v) final concentration. […] Fluorescence of measured samples was excited at 280 nm (2.5 nm bandwidth) and detected at 337 nm or 330 nm (4 nm bandwidth), thus reducing the signal originated from the free cap analogues. Measurements were carried out on a LS-55 spectrofluorometer (Perkin Elmer Co.) using freshly prepared proteins, and the fluorescence intensities were corrected for sample dilution and the inner filter effect.
(§3) Equilibrium association constants (Kas) were determined by fitting the theoretical dependence of fluorescence intensity on the total concentration of the cap analogue to the experimental data points, according to the equation described previously (see Ref. [22] and Fig. S2c).
(§4) The final Kas was calculated as a weighted average of 2–6 independent titrations with the weights taken as the reciprocal of the numerical standard deviation squared. Numerical, nonlinear least-squares regression analysis was performed using Origin 6.0 (Microcal Software Inc.). Obtained association constants were used to determine the Gibbs free energy according to the standard equation ΔG° = − RTlnKas.

heIF4E1b [2] = experiment: as above; design: species or system human; settings: without glycerol
Description: as §1, §2, §3, §4

heIF4E1b [3] = target: T2, heIF4E1b (Homo sapiens, UniProt A6NMX2); experiment: as above; settings: equilibrium association constant; buffer without glycerol
T2 construct: made in house; host or cells: E. coli Rosetta2(DE3)
T2 sequence (A6NMX2 1-242): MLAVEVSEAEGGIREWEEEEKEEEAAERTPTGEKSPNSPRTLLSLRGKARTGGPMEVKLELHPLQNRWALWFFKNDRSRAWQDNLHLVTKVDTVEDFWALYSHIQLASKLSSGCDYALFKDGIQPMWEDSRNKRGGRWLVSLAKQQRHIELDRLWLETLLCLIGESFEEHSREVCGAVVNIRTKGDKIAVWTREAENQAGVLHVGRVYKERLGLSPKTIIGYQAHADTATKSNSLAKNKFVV
Description: as §1, §2, §3, §4

heIF4E1a = target: T3, heIF4E1a (Homo sapiens, UniProt P06730); experiment: as above; settings: for Kas − glycerol heIF4E1a: equilibrium association constant, buffer without glycerol
T3 construct: made in house; host or cells: E. coli Rosetta2(DE3)
Description: as §1, §2, §3, §4

X4E1a2 (E101S/K102R) = target: T4, X4E1a2 (E101S/K102R) (Xenopus laevis, UniProt P48597, E101S/K102R); experiment: fluorescence titration, XeIF4E1a mutant; format: binding; settings: mutant (E101S/K102R) of XeIF4E1a
T4 construct: made in house; host or cells: E. coli Rosetta2(DE3)
Description: (§5) We tested the effect on cap-binding activity of these positions in the fluorescence assay with six mutated recombinant versions of Xenopus eIF4E1a (Fig. S4). The amino acids were introduced in XeIF4E1a sequentially in the order: E101S/K102R/S195A/M82S/T206L/T207S (numbering of the XeIF4E1a sequence is shifted backward by 4 amino acids relative to XeIF4E1b). […] The biggest contribution to the weaker cap binding of XeIF4E1a, in each case about 20%, resulted from changing Glu101 to Ser and Thr206 to Leu coupled with Thr207 to Ser, with the remaining mutations having only minor effects. […] Glu101 is a solvent-accessible amino acid and is proximal to Trp98 in the S3-S4 loop. […] Attenuation of the cap-binding affinity of XeIF4E1a resulting from mutating Thr206 and Thr207 is consistent with our results mentioned above showing significant influence of C-terminal loop residues on binding phosphate and the second nucleotide.
(§6) For human eIF4E1a and eIF4E1b and also for Xenopus eIF4E1a and its mutated forms, measurements were carried out using 0.1 μM protein in 50 mM Hepes/KOH (pH 7.2), 134.5 mM KCl, 0.5 mM EDTA and 1 mM DTT. For Xenopus eIF4E1b(ΔN27), the concentration was 0.2 μM and glycerol was added to the buffer to 10% (v/v) final concentration. […] The gradually increasing concentration of cap analogue quenches protein fluorescence without shifting the spectrum maximum, while at high concentrations, the fluorescence signal of free cap analogue dominates over the fluorescence from other solution components including free eIF4E and eIF4E in complex with cap (Fig. S2a). Fluorescence of measured samples was excited at 280 nm (2.5 nm bandwidth) and detected at 337 nm or 330 nm (4 nm bandwidth), thus reducing the signal originated from the free cap analogues. Measurements were carried out on a LS-55 spectrofluorometer (Perkin Elmer Co.) using freshly prepared proteins, and the fluorescence intensities were corrected for sample dilution and the inner filter effect.
(§7) Equilibrium association constants (Kas) were determined by fitting the theoretical dependence of fluorescence intensity on the total concentration of the cap analogue to the experimental data points, according to the equation described previously (see Ref. [22] and Fig. S2c). […] Along with Kas and the concentration of the active protein [P0^act], other parameters such as fL and ∆f = fPact − fPL are also gained from the fit, where fL represents the fluorescence efficiency of free cap analogue and ∆f represents the difference between the fluorescence efficiencies of the apo-protein and the complex (Fig. S2c).
as §4

X4E1a1’ (K102R) = target: T5, X4E1a1’ (K102R) (Xenopus laevis, UniProt P48597, K102R); experiment: fluorescence titration, XeIF4E1a mutant; format: binding; settings: mutant (K102R) of XeIF4E1a
T5 construct: made in house; host or cells: E. coli Rosetta2(DE3)
Description: as §5, §6, §7, §4

[4] = target: T6, X4E1a4 (E101S/K102R/S195A/M82S) (Xenopus laevis, UniProt P48597, E101S/K102R/M82S/S195A); experiment: fluorescence titration, XeIF4E1a mutant; format: binding; settings: mutant (E101S/K102R/S195A/M82S) of XeIF4E1a
T6 construct: made in house; host or cells: E. coli Rosetta2(DE3)
Description: as §5, §6, §7, §4

[5] = target: T7, X4E1a6 (E101S/K102R/S195A/M82S/T206L/T207S) (Xenopus laevis, UniProt P48597, E101S/K102R/M82S/S195A/T206L/T207S); experiment: fluorescence titration, XeIF4E1a mutant; format: binding; settings: for Kas X4E1a6: mutant (E101S/K102R/S195A/M82S/T206L/T207S) of XeIF4E1a
T7 construct: made in house; host or cells: E. coli Rosetta2(DE3)
Description: as §5, §6, §7, §4

X4E1a1 (E101S) = target: T8, X4E1a1 (E101S) (Xenopus laevis, UniProt P48597, E101S); experiment: fluorescence titration, XeIF4E1a mutant; format: binding; settings: mutant (E101S) of XeIF4E1a
T8 construct: made in house; host or cells: E. coli Rosetta2(DE3)
Description: as §5, §6, §7, §4

[6] = target: T9, X4E1a3 (E101S/K102R/S195A) (Xenopus laevis, UniProt P48597, E101S/K102R/S195A); experiment: fluorescence titration, XeIF4E1a mutant; format: binding; settings: mutant (E101S/K102R/S195A) of XeIF4E1a
T9 construct: made in house; host or cells: E. coli Rosetta2(DE3)
Description: as §5, §6, §7, §4

XeIF4E1bΔN27 = experiment: time-synchronized fluorescence titration of cap analogue binding; design: species or system Xenopus laevis; settings: 10% glycerol; for Kas + glycerol XeIF4E1bΔN27: equilibrium association constant
Description: as §1, §2, §3, §4

XeIF4E1a [7] = experiment: as above; design: species or system Xenopus laevis; settings: without glycerol
Description: as §1, §2, §3, §4

T3 sequence (P06730 whole entry): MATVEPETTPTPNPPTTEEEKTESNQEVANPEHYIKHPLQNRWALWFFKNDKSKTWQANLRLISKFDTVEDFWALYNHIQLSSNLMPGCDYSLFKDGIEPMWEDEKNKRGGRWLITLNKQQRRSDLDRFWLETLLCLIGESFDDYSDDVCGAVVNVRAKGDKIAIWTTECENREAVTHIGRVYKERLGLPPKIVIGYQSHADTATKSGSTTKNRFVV
T1 sequence (P48597 whole entry): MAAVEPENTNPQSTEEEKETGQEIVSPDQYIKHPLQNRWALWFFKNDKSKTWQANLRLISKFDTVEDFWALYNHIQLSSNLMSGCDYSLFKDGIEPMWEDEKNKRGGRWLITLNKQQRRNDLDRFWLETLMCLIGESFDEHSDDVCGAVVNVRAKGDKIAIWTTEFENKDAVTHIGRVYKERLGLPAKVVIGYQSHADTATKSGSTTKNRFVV
T7 sequence (P48597 whole entry M82S/E101S/K102R/S195A/T206L/T207S): as the sequence (P48597 whole entry) above, with M82S, E101S, K102R, S195A, T206L, T207S counted along it
T5 sequence (P48597 whole entry K102R): as the sequence (P48597 whole entry) above, with K102R counted along it
T8 sequence (P48597 whole entry E101S): as the sequence (P48597 whole entry) above, with E101S counted along it
T4 sequence (P48597 whole entry E101S/K102R): as the sequence (P48597 whole entry) above, with E101S, K102R counted along it
T6 sequence (P48597 whole entry M82S/E101S/K102R/S195A): as the sequence (P48597 whole entry) above, with M82S, E101S, K102R, S195A counted along it
T9 sequence (P48597 whole entry E101S/K102R/S195A): as the sequence (P48597 whole entry) above, with E101S, K102R, S195A counted along it

SMILES	ΔΔG^o + glycerol XeIF4E1a (XeIF4E1a [1]; change relative to m^7Gp3G, 10% glycerol) [kJ/mol]	Kas + glycerol XeIF4E1a (XeIF4E1a [1]; 10% glycerol) [μM^− 1]	Ratio Kas (h4E1a) to Kas (h4E1b) (heIF4E1b [2])	Kas − glycerol heIF4E1b (heIF4E1b [3]) [μM^− 1]	ΔΔG^o − glycerol heIF4E1a (heIF4E1a; change relative to m^7Gp3G, without glycerol) [kJ/mol]	Kas − glycerol heIF4E1a (heIF4E1a) [μM^− 1]	Kas X4E1a2 (X4E1a2 (E101S/K102R)) [µM⁻¹]	Kas X4E1a1’ (X4E1a1’ (K102R)) [µM⁻¹]	Kas X4E1a4 [4] [µM⁻¹]	decrease of association constant compared to wild-type XeIF4E1a ([5]; all six residues replaced) [%]	Kas X4E1a6 [5] [µM⁻¹]	Kas X4E1a1 (X4E1a1 (E101S)) [µM⁻¹]	Kas X4E1a3 [6] [µM⁻¹]	Kas + glycerol XeIF4E1bΔN27 (XeIF4E1bΔN27) [μM^− 1]	Kas − glycerol XeIF4E1a (XeIF4E1a [1]) [μM^− 1]	Ratio Kas (X4E1a) to Kas (X4E1bΔN27) (XeIF4E1bΔN27)	Ratio Kas (h4E1a) to Kas (X4E1a) (XeIF4E1a [7])
CO[C@@H]1[C@H](O)[C@@H](COP(=O)(O)OP(=O)(O)OP(=O)(O)OC[C@H]2O[C@@H](n3c[n+](C)c4c(=O)[nH]c(N)nc43)[C@H](O)[C@@H]2O)O[C@H]1n1cnc2c(=O)[nH]c(N)nc21 [m^7Gpppm^2′-OG]	0.109 ± 0.0753	2.189 ± 0.026	1.34	3.568 ± 0.071	0.536 ± 0.172	4.77 ± 0.13	–	–	–	–	–	–	–	–	–	–	–
Cn1c[n+]([C@@H]2O[C@H](COP(=O)([O-])OP(=O)(O)OP(=O)(O)O)[C@@H](O)[C@H]2O)c2nc(N)[nH]c(=O)c21 [m^7GTP]	–	23.34 ± 0.88	–	22.0 ± 1.4	–	–	32.76 ± 0.51	34.3 ± 1.7	26.7 ± 2.2	50	19.8 ± 0.4	33.58 ± 0.66	28.1 ± 1.5	7.80 ± 0.41	42.8 ± 2.0	–	–
Cn1c[n+]([C@@H]2O[C@H](COP(=O)(O)OP(=O)(O)OP(=O)(O)OP(=O)(O)OP(=O)(O)O)[C@@H](O)[C@H]2O)c2nc(N)[nH]c(=O)c21 [m^7Gp5]	–	230 ± 31	3.73	146.6 ± 9.9	–	547 ± 31	280 ± 11	382 ± 16	–	–	190 ± 6	279 ± 34	–	65.6 ± 4.2	378 ± 44	3.50	1.44

— publication PMC4306533, “Distinct Features of Cap Binding by eIF4E1b Proteins” (Journal of Molecular Biology, 2015)
